Among the data in patent US20230113037A1 (Bayer Aktiengesellschaft, priority 2019, published 2023) are IC50 values, retold here.

The target of test [1] is T1, AHR (Homo sapiens, UniProt P35869).
T1 construct: U87 MG glioblastoma cells (ATCC #HTB-14) endogenously expressing AHR; endogenous in cells; host or cells: U87 MG glioblastoma cells (ATCC #HTB-14)
T1 sequence (P35869 11-848): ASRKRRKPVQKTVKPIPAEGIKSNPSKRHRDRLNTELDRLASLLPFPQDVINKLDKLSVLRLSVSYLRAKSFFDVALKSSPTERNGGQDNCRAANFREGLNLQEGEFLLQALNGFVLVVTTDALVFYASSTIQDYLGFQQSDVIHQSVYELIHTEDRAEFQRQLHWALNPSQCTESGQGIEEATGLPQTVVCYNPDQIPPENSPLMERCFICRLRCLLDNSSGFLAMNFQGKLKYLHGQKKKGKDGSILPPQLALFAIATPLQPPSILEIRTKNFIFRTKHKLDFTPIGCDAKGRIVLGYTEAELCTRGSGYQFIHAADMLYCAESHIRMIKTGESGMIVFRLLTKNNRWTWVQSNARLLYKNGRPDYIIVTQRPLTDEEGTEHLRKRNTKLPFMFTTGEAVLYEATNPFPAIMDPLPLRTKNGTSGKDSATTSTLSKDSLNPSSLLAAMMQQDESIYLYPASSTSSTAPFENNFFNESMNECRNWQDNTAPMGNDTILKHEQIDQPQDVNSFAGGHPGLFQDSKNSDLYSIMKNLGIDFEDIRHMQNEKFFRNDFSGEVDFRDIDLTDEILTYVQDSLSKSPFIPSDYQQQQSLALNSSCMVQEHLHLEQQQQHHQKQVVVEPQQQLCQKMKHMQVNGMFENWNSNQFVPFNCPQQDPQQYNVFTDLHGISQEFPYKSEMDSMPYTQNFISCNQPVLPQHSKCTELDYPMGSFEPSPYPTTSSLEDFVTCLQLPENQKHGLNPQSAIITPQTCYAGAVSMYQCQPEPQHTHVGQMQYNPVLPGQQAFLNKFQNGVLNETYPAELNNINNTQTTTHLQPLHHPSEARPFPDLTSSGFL
Put plainly: In vitro assay 1: antagonism in human cell line (AHR transactivation, firefly luciferase reporter, kynurenic acid prestimulated). It is filed as cell-based. The conditions noted are these: AHR Antagonism Human IC50 [M]. An outline of the steps:
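U87 MG + DRE-firefly/constitutive-Renilla stable reporters; kynurenic acid prestim; dual-luc read; Renilla = tox; normalized vs pos/neg controls (pos: 150 μM KYNA + 5 μM staurosporine).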
(Reporter assays use an easily measured gene product as a stand-in for the process of interest.)

Test [2] concerns the target T2, AHR (Mus musculus, UniProt P30561).
T2 sequence (P30561 1-848 P471L/N533S/M589L): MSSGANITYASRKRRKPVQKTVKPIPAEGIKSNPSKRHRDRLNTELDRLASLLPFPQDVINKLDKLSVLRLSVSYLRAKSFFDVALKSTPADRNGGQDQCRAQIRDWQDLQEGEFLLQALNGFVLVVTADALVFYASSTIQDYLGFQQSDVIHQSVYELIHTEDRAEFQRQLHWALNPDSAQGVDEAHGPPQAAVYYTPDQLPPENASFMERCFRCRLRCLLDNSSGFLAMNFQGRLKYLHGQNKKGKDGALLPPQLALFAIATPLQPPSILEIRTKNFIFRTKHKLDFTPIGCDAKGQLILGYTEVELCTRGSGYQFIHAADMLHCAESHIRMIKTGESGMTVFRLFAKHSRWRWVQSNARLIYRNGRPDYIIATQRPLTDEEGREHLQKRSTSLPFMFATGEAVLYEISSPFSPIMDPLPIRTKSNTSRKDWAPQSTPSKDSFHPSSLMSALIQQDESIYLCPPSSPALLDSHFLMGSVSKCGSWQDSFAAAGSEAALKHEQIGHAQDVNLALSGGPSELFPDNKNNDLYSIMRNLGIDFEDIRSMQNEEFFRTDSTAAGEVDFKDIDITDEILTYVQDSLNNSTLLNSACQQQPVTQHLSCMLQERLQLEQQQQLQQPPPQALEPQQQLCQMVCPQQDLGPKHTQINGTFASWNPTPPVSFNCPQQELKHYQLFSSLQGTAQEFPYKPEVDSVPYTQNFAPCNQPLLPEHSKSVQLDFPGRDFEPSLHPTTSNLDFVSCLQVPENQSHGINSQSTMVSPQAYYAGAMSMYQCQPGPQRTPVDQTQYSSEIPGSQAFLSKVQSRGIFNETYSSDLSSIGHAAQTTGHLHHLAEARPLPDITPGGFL
Nature of the test: In vitro assay 3: antagonism in mouse cell line (AHR transactivation, firefly luciferase reporter, kynurenic acid prestimulated). The format is cell-based. The method, boiled down: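 Mouse cells stably carrying a DRE-driven, AHR-inducible firefly luciferase reporter were prestimulated with the endogenous agonist kynurenic acid before compound addition. Luciferase activity was measured by luminescence and normalized to positive and negative controls, with cells lacking kynurenic acid serving as full-inhibition control. Repeat tests are reported as mean or median.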

The mark [3] stands for this setting: mouse Hepa 1c1c7 cells, 200 μM kynurenic acid, 20 hours, read-out: AHR Antagonism Mouse IC50.

Molecules are shown by their SMILES. Values joined by “and” are separate entries in the source; they are usually repeats but may differ in a detail not shown here. Identical values can stand only once. Like-named read-outs stand apart in the source and are kept apart here. Bounds are passed on as bounds.

The term IC50 denotes the concentration at which inhibition is half-maximal. Consider `O=C1NCCCC[C@H]1Nc1nc2ccccc2c2nc(-c3nc(CCO)no3)nn12` [Example 305, (3R)-3-({2-[3-(2-Hydroxyethyl)-1,2,4-oxadiazol-5-yl][1,2,4]triazolo[1,5-c]quinazolin-5-yl}amino)azepan-2-one], for which the IC50 on AHR [1] came out at 2.97e-07 M; at AHR [2] (read-out: AHR Antagonism Mouse IC50, mouse Hepa 1c1c7 cells, 200 μM kynurenic acid, 20 hours) it was 178 nM.

Regarding `CS(=N)(=O)c1ccc(-c2nc3c4ccccc4nc(N[C@@H]4CCCCNC4=O)n3n2)cc1` (stereo partly drawn) [Example 306, (3R)-3-({2-[4-(S-methylsulfonimidoyl)phenyl][1,2,4]triazolo[1,5-c]quinazolin-5-yl}amino)azepan-2-one], the IC50 against AHR [1] was determined as 1.09e-07 M; at AHR [2] (setting [3]) it was 31.2 nM.

For `O=C1NCCCC[C@H]1Nc1nc2ccccc2c2nc(-c3cccc(OC(F)(F)F)c3)nn12` [Example 309, (3R)-3-({2-[3-(Trifluoromethoxy)phenyl][1,2,4]triazolo[1,5-c]quinazolin-5-yl}amino)azepan-2-one], the IC50 at AHR [1] turned out to be 2.47e-08 M; on AHR [2] (setting [3]) it was 1.97 nM.

Consider `O=C1NCC[C@H]1Nc1nc2ccccc2c2nc(-c3cccc(OC(F)(F)F)c3)nn12` [Example 310, (3R)-3-({2-[3-(trifluoromethoxy)phenyl][1,2,4]triazolo[1,5-c]quinazolin-5-yl}amino)pyrrolidin-2-one], for which the IC50 is 9.98e-08 M against AHR [1] and 60.7 nM on AHR [2] (setting [3]).

For `O=C1NCCC[C@H]1Nc1nc2ccccc2c2nc(-c3cccc(OC(F)(F)F)c3)nn12` [Example 311, (3R)-3-({2-[3-(trifluoromethoxy)phenyl][1,2,4]triazolo[1,5-c]quinazolin-5-yl}amino)piperidin-2-one], the IC50 came to 1.36e-07 M on AHR [1] and 111 nM at AHR [2] (setting [3]).

In the case of `CN1CC[C@@H](Nc2nc3ccccc3c3nc(-c4cccc(OC(F)(F)F)c4)nn23)C1=O` [Example 312, (3R)-1-methyl-3-({2-[3-(trifluoromethoxy)phenyl][1,2,4]triazolo[1,5-c]quinazolin-5-yl}amino)pyrrolidin-2-one], the IC50 against AHR [1] amounted to 7.19e-08 M; on AHR [2] (setting [3]) it was 22 nM.

Take `NC(=O)[C@@H](CO)Nc1nc2ccccc2c2nc(-c3cccc(OC(F)(F)F)c3)nn12` [Example 313, N^2-{2-[3-(trifluoromethoxy)phenyl][1,2,4]triazolo[1,5-c]quinazolin-5-yl}-D-serinamide]: the IC50 is 1.06e-07 M at AHR [1] and 99.2 nM on AHR [2] (setting [3]).

On to `CC[C@@H](Nc1nc2ccccc2c2nc(-c3cccc(OC(F)(F)F)c3)nn12)C(N)=O` [Example 314, (2R)-2-({2-[3-(trifluoromethoxy)phenyl][1,2,4]triazolo[1,5-c]quinazolin-5-yl}amino)butanamide], for which the IC50 turned out to be 6.9e-09 M against AHR [1] and 0.922 nM on AHR [2] (setting [3]).

On to `O=C1NCCCC[C@@H]1Nc1nc2ccccc2c2nc(-c3cccc(OC(F)(F)F)c3)nn12` [Example 315, (3S)-3-({2-[3-(trifluoromethoxy)phenyl][1,2,4]triazolo[1,5-c]quinazolin-5-yl}amino)azepan-2-one], for which the IC50 at AHR [1] worked out at 2.06e-07 M; on AHR [2] (setting [3]), 50.8 nM.

With `CCC[C@@H](Nc1nc2ccccc2c2nc(-c3cccc(OC(F)(F)F)c3)nn12)C(=O)NC` [Example 316, N-methyl-N^2-{2-[3-(trifluoromethoxy)phenyl][1,2,4]triazolo[1,5-c]quinazolin-5-yl}-D-norvalinamide], the concentration for half-maximal inhibition (IC50) against AHR [1] stood at 2.07e-08 M; on AHR [2] (setting [3]), 3.76 nM.

For `CCNC(=O)C(CC)Nc1nc2ccccc2c2nc(-c3cccc(OC(F)(F)F)c3)nn12` (centres unmarked) [Example 318, N-ethyl-2-({2-[3-(trifluoromethoxy)phenyl][1,2J4]triazolo[1,5-c]quinazolin-5-yl}amino)butanamide], the IC50 at AHR [1] came to 1.29e-08 M; on AHR [2] (setting [3]), 0.603 nM.

Turning to `CCCNC(=O)[C@@H](C)Nc1nc2ccccc2c2nc(-c3cccc(OC(F)(F)F)c3)nn12` [Example 321, N-propyl-N2-{2-[3-(trifluoromethoxy)phenyl][1,2,4]triazolo[1,5-c]quinazolin-5-yl}-D-alaninamide], the results for the IC50 at AHR [1] and on AHR [2] (setting [3]) were 2.06e-08 M and 12.4 nM, respectively.

As to `C[C@@H](Nc1nc2ccccc2c2nc(-c3cccc(OC(F)(F)F)c3)nn12)C(=O)NCCN(C)C` [Example 325, N-[2-(dimethylamino)ethyl]-N^2-{2-[3-(trifluoromethoxy)phenyl][1,2,4]triazolo[1,5-c]quinazolin-5-yl}-D-alaninamide], the IC50 is 1.49e-05 M and 1.56e-05 M and > 2e-05 M at AHR [1]; 677 nM on AHR [2] (setting [3]).

On to `NC(=O)[C@@H](CO)Nc1nc2ccccc2c2nc(-c3ccc(OC(F)(F)F)cc3)nn12` [Example 329, N^2-{2-[4-(trifluoromethoxy)phenyl][1,2,4]triazolo[1,5-c]quinazolin-5-yl}-D-serinamide], for which the IC50 at AHR [1] is 5.94e-09 M; on AHR [2] (setting [3]), 2.89 nM.

Regarding `COc1cscc1-c1nc2c3ccccc3nc(N[C@@H]3CCCCNC3=O)n2n1` [Example 333, (3R)-3-{[2-(4-Methoxythiophen-3-yl)[1,2,4]triazolo[1,5-c]quinazolin-5-yl]amino}azepan-2-one], the IC50 on AHR [1] is 2.74e-08 M; on AHR [2] (setting [3]), 28 nM.

For the compound `COc1cscc1-c1nc2c3ccccc3nc(N[C@H]3CCCCNC3=O)n2n1` [Example 336, (3S)-3-{[2-(4-methoxythiophen-3-yl)[1,2,4]triazolo[1,5-c]quinazolin-5-yl]amino}azepan-2-one], the concentration for half-maximal inhibition (IC50) is 8.51e-06 M on AHR [1] and 434 nM at AHR [2] (setting [3]).

As to `COc1cscc1-c1nc2c3ccccc3nc(N[C@@H]3CCN(C)C3=O)n2n1` [Example 337, (3R)-3-{[2-(4-methoxythiophen-3-yl)[1,2,4]triazolo[1,5-c]quinazolin-5-yl]amino}-1-methylpyrrolidin-2-one], the results for the IC50 at AHR [1] and on AHR [2] (setting [3]) were 1.71e-06 M and above 20000 nM, respectively.

As for `CC[C@@H](Nc1nc2ccccc2c2nc(-c3cscc3OC)nn12)C(N)=O` [Example 338, (2R)-2-{[2-(4-methoxythiophen-3-yl)[1,2,4]triazolo[1,5-c]quinazolin-5-yl]amino}butanamide], the half-inhibitory concentration (IC50) on AHR [1] turned out to be 1.91e-07 M; at AHR [2] (setting [3]) it was 53.9 nM.

In the case of `CCC[C@@H](Nc1nc2ccccc2c2nc(-c3cscc3OC)nn12)C(=O)NC` [Example 339, N^2-[2-(4-methoxythiophen-3-yl)[1,2,4]triazolo[1,5-c]quinazolin-5-yl]-N-methyl-D-norvalinamide], the 50% inhibitory concentration (IC50) on AHR [1] was found to be 3.37e-07 M; at AHR [2] (setting [3]), 169 nM.

Take `O=C1NCCCC[C@H]1Nc1nc2ccccc2c2nc(-c3ccsc3)nn12` [Example 340, (3R)-3-{[2-(thiophen-3-yl)[1,2,4]triazolo[1,5-c]quinazolin-5-yl]amino}azepan-2-one]: the results for the IC50 against AHR [1] and on AHR [2] (setting [3]) were 7.33e-10 M and 0.517 nM, respectively.

For `O=C1NCCCC[C@@H]1Nc1nc2ccccc2c2nc(-c3ccsc3)nn12` [Example 341], the IC50 against AHR [1] is 1.18e-07 M; at AHR [2] (setting [3]), 17.7 nM.

Turning to `O=C1NCC[C@H]1Nc1nc2ccccc2c2nc(-c3ccsc3)nn12` [Example 342, (3R)-3-{[2-(thiophen-3-yl)[1,2,4]triazolo[1,5-c]quinazolin-5-yl]amino}pyrrolidin-2-one], the figures for the IC50 on AHR [1] and at AHR [2] (setting [3]) were 2.21e-07 M and 175 nM, respectively.
